Where “and” joins values, the source holds several entries; their conditions need not be identical. Equal values may be shown once.
Assays:
Format in all cases: physicochemical
[1] = Physical stability on storage: particle size (Dv90) by laser diffraction
[2] = Particle size by optical microscopy, number % undersize; details: mean diameter
Method: (§1) As a secondary analytical method, the micronized and the non-micronized oxycodone analyzed by laser diffraction with results shown in Table 1, were analyzed by optical microscopy to evaluate particle size and the results are shown in Table 2. Sample aliquots (˜50 mg for micronized and ˜225 mg for non-micronized) were dispersed in 10 ml of sunflower oil and viewed on a Nikon microscope equipped with a 10× objective. Particle size (mean diameter) was determined using Image Pro® Plus software and expressed as a number % undersize. The particle size values determined by optical microscopy as shown in Table 2 are consistent with the laser diffraction particle size data shown in Table 1.

[3] = Particle size distribution by laser diffraction (Malvern Mastersizer 2000), oxycodone base
[4] = Physical stability on storage: microscopy
Method: as §1
(§2) Samples of Example 2 and additional samples comprising micronized and non-micronized oxycodone useful for exemplary dosage forms are tested for their chemical stability and physical stability. Based on a comparison of stability data from micronized and non-micronized samples stored at both 25° C./60% RH and 40 C.°/75% RH, no differences are observed in the impurity profile through three months of study as shown in Tables 4 and 5 for exemplary lots. The impurities analyzed include (HOXY), 14-Hydroxycodeinone; (DHOXYN), 7,8-Dihydro-8,14-Dihydroxycodeinone; (DHOXY), 7,8-Dihydro-14-hydroxycodeine; (OXYE), Oxycodone ethylenolate; (OXYN), 1-Hydroxyoxycodone and Oxycodone N-oxide. Most of the impurities are found to be below the limit of quantitation (LOQ), except for HOXY and DHOXYN which were unchanged at 0.1%. […] The solid state stability of the micronized oxycodone is monitored for particle size, XRPD, DSC, and microscopy as shown in Table 6.

[5] = Chemical stability on storage: assay and impurities
Method: as §2

[6] = Physical stability on storage: DSC onset melt
Method: The micronized lots may also be analyzed by Differential Scanning Calorimetry (DSC). DSC is performed on a TA instrument Q100 using a heating ramp from 25-235° C. at a rate of 5° C./min. […] The sharp endotherm observed is consistent with a crystalline material and the absence of other thermal events proves that there were no polymorph transformations during melting.
as §2

[7] = Table 1 analysis, lot 2 in duplicate
[8] = additional laser diffraction analysis, Table 3

SMILES: COc1ccc2c3c1O[C@H]1C(=O)CC[C@@]4(O)[C@@H](C2)N(C)CC[C@]314 [Lot 2, oxycodone]
- Particle size (Dv90) ([1]; 25° C./60% RH, 3 months): 10 μ
- Particle size (Dv90) ([1]; 40° C./75% RH, 3 months): 10 μ
- Particle size (Dv90) ([1]; Time 0): 4 μ
- % ≦ 1μ [2]: 25.3%
- % ≦ 5μ [2]: 92.2%
- % ≦ 10μ [2]: 99.5%
- Particle size (Dv10) [3, 7]: 0.5, 0.5 μ
- Particle size (Dv50) [3, 7]: 1.5 μ and 2.2 μ
- Particle size (Dv90) [3, 7]: 3.1 μ and 5.1 μ
- Particle size (Dv10) [3, 8]: 0.6 μ
- Particle size (Dv50) [3, 8]: 2.1 μ
- Particle size (Dv90) [3, 8]: 5.8 μ
- Microscopy, ≦10 μ ([4]; 25° C./60% RH, 3 mo): 99.5%
- Microscopy, ≦10 μ ([4]; 40° C./75% RH, 3 mo): 98.3%
- Microscopy, ≦10 μ ([4]; Time 0): 99.5%
- 1-HydroxyOXY ([5]; 5° C./60% RH, 1 mo (Table 4)): <LOQ
- 1-HydroxyOXY ([5]; 5° C./60% RH, 3 mo (Table 4)): <LOQ
- Assay ([5]; 25° C./60% RH, 1 mo): 99.8%
- DHOXY (7,8-Dihydro-14-hydroxycodeine) ([5]; 25° C./60% RH, 1 mo): <LOQ
- DHOXYN (7,8-Dihydro-8,14-Dihydroxycodeinone) ([5]; 25° C./60% RH, 1 mo): 0.10%
- HOXY (14-Hydroxycodeinone) ([5]; 25° C./60% RH, 1 mo): 0.08%
- OXYE (Oxycodone ethylenolate) ([5]; 25° C./60% RH, 1 mo): <LOQ
- OXYN ([5]; 25° C./60% RH, 1 mo): <LOQ
- Other (impurities; Table 5: >0.05%) ([5]; 25° C./60% RH, 1 mo): <LOQ
- Total impurities ([5]; 25° C./60% RH, 1 mo): 0.18%
- Assay ([5]; 25° C./60% RH, 3 mo): 99.8%
- DHOXY (7,8-Dihydro-14-hydroxycodeine) ([5]; 25° C./60% RH, 3 mo): <LOQ
- DHOXYN (7,8-Dihydro-8,14-Dihydroxycodeinone) ([5]; 25° C./60% RH, 3 mo): 0.10%
- HOXY (14-Hydroxycodeinone) ([5]; 25° C./60% RH, 3 mo): 0.08%
- OXYE (Oxycodone ethylenolate) ([5]; 25° C./60% RH, 3 mo): <LOQ
- OXYN ([5]; 25° C./60% RH, 3 mo): <LOQ
- Other (impurities; Table 5: >0.05%) ([5]; 25° C./60% RH, 3 mo): <LOQ
- Total impurities ([5]; 25° C./60% RH, 3 mo): 0.18%
- 1-HydroxyOXY ([5]; 40° C./75% RH, 1 mo): <LOQ
- Assay ([5]; 40° C./75% RH, 1 mo): 99.6%
- DHOXY (7,8-Dihydro-14-hydroxycodeine) ([5]; 40° C./75% RH, 1 mo): <LOQ
- DHOXYN (7,8-Dihydro-8,14-Dihydroxycodeinone) ([5]; 40° C./75% RH, 1 mo): 0.10%
- HOXY (14-Hydroxycodeinone) ([5]; 40° C./75% RH, 1 mo): 0.08%
- OXYE (Oxycodone ethylenolate) ([5]; 40° C./75% RH, 1 mo): <LOQ
- OXYN ([5]; 40° C./75% RH, 1 mo): <LOQ
- Other (impurities; Table 5: >0.05%) ([5]; 40° C./75% RH, 1 mo): <LOQ
- Total impurities ([5]; 40° C./75% RH, 1 mo): 0.18%
- 1-HydroxyOXY ([5]; 40° C./75% RH, 3 mo): <LOQ
- Assay ([5]; 40° C./75% RH, 3 mo): 99.2%
- DHOXY (7,8-Dihydro-14-hydroxycodeine) ([5]; 40° C./75% RH, 3 mo): <LOQ
- DHOXYN (7,8-Dihydro-8,14-Dihydroxycodeinone) ([5]; 40° C./75% RH, 3 mo): 0.10%
- HOXY (14-Hydroxycodeinone) ([5]; 40° C./75% RH, 3 mo): 0.08%
- OXYE (Oxycodone ethylenolate) ([5]; 40° C./75% RH, 3 mo): <LOQ
- OXYN ([5]; 40° C./75% RH, 3 mo): <LOQ
- Other (impurities; Table 5: >0.05%) ([5]; 40° C./75% RH, 3 mo): <LOQ
- Total impurities ([5]; 40° C./75% RH, 3 mo): 0.18%
- 1-HydroxyOXY ([5]; Time 0): <LOQ
- Assay ([5]; Time 0): 100.7%
- DHOXY (7,8-Dihydro-14-hydroxycodeine) ([5]; Time 0): <LOQ
- DHOXYN (7,8-Dihydro-8,14-Dihydroxycodeinone) ([5]; Time 0): 0.10%
- HOXY (14-Hydroxycodeinone) ([5]; Time 0): 0.08%
- OXYE (Oxycodone ethylenolate) ([5]; Time 0): <LOQ
- OXYN ([5]; Time 0): <LOQ
- Other (impurities; Table 5: >0.05%) ([5]; Time 0): <LOQ
- Total impurities ([5]; Time 0): 0.18%
- DSC Onset Melt ([6]; 25° C./60% RH, 3 mo): 221.8 °C
- DSC Onset Melt ([6]; 40° C./75% RH, 3 mo): 221.9 °C
- DSC Onset Melt ([6]; Time 0): 221.8 °C

Reference: patent US9339463B2, “Micronized opioid compositions having a specific particle size distribution” (priority 2007, dated 2016)
